Results taken from article PMC9367663 (Journal of Enzyme Inhibition and Medicinal Chemistry, 2022).
“Also recorded” adds a separate entry of the source. Where two headings read alike, the source gives them in different places.

Experiments:
cathepsin L = cathepsin L (Homo sapiens, UniProt P07711); test: biochemical; format: biochemical
SARS-CoV-2 PL^Pro = SARS-CoV-2 PL^Pro (Severe acute respiratory syndrome coronavirus 2, UniProt P0DTD1); test: biochemical; format: biochemical
in vitro = conditions: human
[1] = UV–vis stability in biologically relevant media; format: physicochemical; conditions: 50 mM acetate buffer pH 5.5 (1% DMSO for a and 1a), 0 and 30 min
Description: The same buffers as for enzymatic assays were used for UV–vis stability testing (50 mM acetate buffer, pH = 5.5, and 50 mM HEPES buffer, pH = 7.4). Pyrithione a and zinc pyrithione 1a were dissolved in DMSO. Mixtures of a dissolved compound in DMSO (1%) and buffer (99%) were filtered through Minisart® Regenerated Cellulose Syringe Filter (25 mm, 0.2 µm). Ruthenium complex 2a was dissolved directly in buffers. After preparation, the spectra were immediately recorded on UV–vis spectrometer with an additional recording after 30 min.

SARS-CoV-2 viral isolate = format: cell-based; conditions: 30 µM
[2] = system: human lung tissue (HLT) cells
[3] = 1H NMR stability in biologically relevant media; format: physicochemical; conditions: buffers in D2O (1% DMSO-d6 for a and 1a), t = 0 and 30 min
Description: Acetate and HEPES buffers were prepared in D2O. […] Such solutions were further filtered through Minisart® Regenerated Cellulose Syringe Filter (25 mm, 0.2 µm).

[4] = pH 5.5, read-out: IC50 cathepsin L
[5] = 100 µM ligand, averages of three measurements

cathepsin L, sequence (P07711 114-333): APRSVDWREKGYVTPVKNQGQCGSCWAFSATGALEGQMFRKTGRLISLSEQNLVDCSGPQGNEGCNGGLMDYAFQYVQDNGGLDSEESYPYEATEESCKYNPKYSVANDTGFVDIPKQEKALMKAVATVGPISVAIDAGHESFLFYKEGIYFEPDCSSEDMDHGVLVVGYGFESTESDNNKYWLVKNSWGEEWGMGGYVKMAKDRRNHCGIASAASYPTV

**Q.** What does the source list for Zn-(5Me-pth) complex [1d]?
**A.** IC50 (cathepsin L; [4]): 440 ± 120 nM; IC50 (SARS-CoV-2 PL^Pro; pH 7.4, read-out: IC50 PL^Pro): 220 ± 80 nM

**Q.** With Zn-(6Me-pth) complex [1e] as the compound, how does the IC50 (cathepsin L; [4]) read?
**A.** 240 ± 50 nM

**Q.** What about the IC50 (SARS-CoV-2 PL^Pro; pH 7.4, read-out: IC50 PL^Pro) of the same compound?
**A.** 260 ± 180 nM

**Q.** With Cc1cccc(=S)n1O [e] as the compound, how does the “vi/v0 at 100 µM, Cathepsin L (relative reaction rate)” value (cathepsin L; [5]) read?
**A.** 1.15

**Q.** What about the “vi/v0 at 100 µM, PLPro (relative reaction rate)” value (SARS-CoV-2 PL^Pro) of the same compound?
**A.** 0.82

**Q.** Which results are given for On1c(=S)ccc2ccccc21 [g]?
**A.** vi/v0 at 100 µM, Cathepsin L (relative reaction rate) (cathepsin L; [5]): 0.53; vi/v0 at 100 µM, PLPro (relative reaction rate) (SARS-CoV-2 PL^Pro; [5]): 0.28

**Q.** For COc1cccn(O)c1=S [h], which “vi/v0 at 100 µM, Cathepsin L (relative reaction rate)” value (cathepsin L; [5]) is on record?
**A.** 1.17

**Q.** What about the “vi/v0 at 100 µM, PLPro (relative reaction rate)” value (SARS-CoV-2 PL^Pro; [5]) of the same compound?
**A.** 0.60

**Q.** For On1ccc2ccccc2c1=S [f, N-hydroxyisoquinoline-1-thione], which “vi/v0 at 100 µM, Cathepsin L (relative reaction rate)” value (cathepsin L; [5]) is on record?
**A.** 0.65

**Q.** And the “vi/v0 at 100 µM, PLPro (relative reaction rate)” value (SARS-CoV-2 PL^Pro; [5])?
**A.** 0.66

**Q.** With “Zn-(N-hydroxyisoquinoline-1-thione) complex [1f]” as the compound, how does the IC50 (cathepsin L; 50 mM acetate buffer pH 5.5, 2 µM Z-LR-AMC, 5 µM DTT, 25 °C, mean ± S.E.M. (N = 3), read-out: IC50 cathepsin L) read?
**A.** 140 ± 50 nM

**Q.** And the “extent of PL^Pro inhibition (in words)” value (SARS-CoV-2 PL^Pro)?
**A.** cannot fully inhibit the enzyme

**Q.** Which results are given for Cc1cccn(O)c1=S [b]?
**A.** vi/v0 at 100 µM, Cathepsin L (relative reaction rate) (cathepsin L; [5]): 1.05; vi/v0 at 100 µM, PLPro (relative reaction rate) (SARS-CoV-2 PL^Pro): 0.50

**Q.** For Cc1ccc(=S)n(O)c1 [d], which “vi/v0 at 100 µM, Cathepsin L (relative reaction rate)” value (cathepsin L; [5]) is on record?
**A.** 1.01

**Q.** And the “vi/v0 at 100 µM, PLPro (relative reaction rate)” value (SARS-CoV-2 PL^Pro)?
**A.** 0.77

**Q.** What does the source list for Zn-(4Me-pth) complex [1c]?
**A.** IC50 (cathepsin L; [4]): 410 ± 80 nM; IC50 (SARS-CoV-2 PL^Pro; pH 7.4, read-out: IC50 PL^Pro): 540 ± 250 nM

**Q.** For Cc1ccn(O)c(=S)c1 [c], which “vi/v0 at 100 µM, Cathepsin L (relative reaction rate)” value (cathepsin L; [5]) is on record?
**A.** 1.04

**Q.** What about the “vi/v0 at 100 µM, PLPro (relative reaction rate)” value (SARS-CoV-2 PL^Pro; [5]) of the same compound?
**A.** 0.60

**Q.** Which CC50 (in vitro) does the source give for On1ccccc1=S [a, 1-hydroxy-2(1H)-pyridinethione] here?
**A.** > 100000 nM

**Q.** What about the viability (in vitro) of the same compound?
**A.** 51.9 to 55.5%

**Q.** And the IC50 (cathepsin L)?
**A.** > 500000 nM

**Q.** And the “vi/v0 at 100 µM, Cathepsin L (relative reaction rate)” value (cathepsin L)?
**A.** 1.09

**Q.** What about the “UV–vis stability in acetate buffer” value [1] of the same compound?
**A.** remain stable

**Q.** What about the “inhibition of SARS-CoV-2 replication” value (SARS-CoV-2 viral isolate) of the same compound?
**A.** no effect; also recorded: did not inhibit

**Q.** What about the cell survival [2] of the same compound?
**A.** 72.91%

**Q.** And the IC50 (SARS-CoV-2 PL^Pro)?
**A.** > 500000 nM

**Q.** And the “vi/v0 at 100 µM, PLPro (relative reaction rate)” value (SARS-CoV-2 PL^Pro)?
**A.** 0.88

**Q.** And the “1H NMR stability in acetate and HEPES buffers” value [3]?
**A.** no structural changes
